Values of other authors, collected in patent publication US20010036658A1, “Culture media for growing spirochetes” (priority 1997, published 2001).
Like-named read-outs stand apart in the source and are kept apart here.

Q: With `COc1cccc2c1C(=O)c1c(O)c3c(c(O)c1C2=O)C[C@@](O)(C(=O)CO)C[C@@H]3O[C@H]1C[C@H](N)[C@H](O)[C@H](C)O1` [doxorubicin] as the molecule, how does the “conversion of normal erythrocytes to echinocytes” value (erythrocytes) read?
A: Its value is “prevents”.

Q: What about the anti-bacterial activity (L-forms of bacteria; certain L-forms of bacteria) of the same molecule?
A: The anti-bacterial activity was “dramatic anti-bacterial activity”.

Q: What about the anti-bacterial activity (L-forms of bacteria; parent forms of the same bacteria) of the same molecule?
A: Its anti-bacterial activity is “without any demonstrable effect”.
